In patent publication US20160257697A1, “THIOPHENE-SUBSTITUTED TETRACYCLIC COMPOUNDS AND METHODS OFUSE THEREOF FOR THE TREATMENT OF VIRAL DISEASES” (priority 2013, published 2016):
pIC50: −log10 of the molar value. Read-outs that look alike come from different tables or passages of the source.

How the values were obtained:
Assay in all cases: microbe, parasite or virus in culture
Type in all cases: cell-based, Hepatitis C virus (HCV)
[1] = test system: HCV replicon 1AY93H
Summary of the method: (§1)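 Three-day treatment of replicon cells (2000/well, 5% FBS, 0.5% DMSO), followed by TaqMan RT-PCR of replicon RNA with cyclophilin as internal control.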

[2] = test system: HCV replicon 1A; details: Replicon Assay A
Summary of the method: as §1

[3] = test system: HCV replicon 2B
Summary of the method: as §1

[4] = test system: HCV replicon 1AQ30D; details: Replicon Assay B; for IC50: read-out: 1A Q30D IC50 (nM), replicon 1AQ30D
[5] = test system: HCV replicon 1B; details: Replicon Assay B
[6] = read-out: 1A Y93H IC50; HCV replicon 1A Y93H; Replicon Assay A
[7] = read-out: 2B IC50; HCV replicon 2B; Replicon Assay A
[8] = Hepatitis C virus, read-out: 1A Q30D IC50, HCV replicon 1A Q30D
[9] = Hepatitis C virus, HCV replicon 1B
[10] = read-out: 1A Q30D IC50, HCV replicon 1A Q30D
[11] = Hepatitis C virus, HCV replicon 1A
[12] = HCV replicon 1A Y93H; Replicon Assay A; read-out: 1A Y93H IC50
[13] = HCV replicon 2B; Replicon Assay A; read-out: 2B IC50
[14] = HCV replicon 1A Q30D, read-out: 1A Q30D IC50
[15] = Hepatitis C virus, read-out: 1A Y93H IC50 (nM), replicon 1AY93H; Replicon Assay A
[16] = Hepatitis C virus, read-out: 2B IC50 (nM), replicon 2B; Replicon Assay A
[17] = read-out: 1A Q30D IC50, replicon 1AQ30D

Structure (SMILES)	pIC50 [1, 6]	pIC50 ([2]; HCV replicon 1A)	pIC50 [3, 7]	pIC50 ([5]; HCV replicon 1B)	pIC50 [4, 10]	also measured
COC(=O)N[C@H](C(=O)N1CCC[C@H]1c1ncc(-c2ccc3c(c2)OC(c2cc4sccc4s2)n2c-3cc3cc(-c4c[nH]c([C@@H]5C[C@H]6C[C@H]6N5C(=O)[C@@H](NC(=O)OC)C(C)C)n4)ccc32)[nH]1)C(C)C (single isomer, unassigned) [Compound 716]	8.89	11.42	8.63	–	–	pIC50 [4, 8]: 7.55; pIC50 [5, 9]: 11.40
COC(=O)N[C@H](C(=O)N1CCC[C@H]1c1nc(-c2cc(F)c3c(c2)OC(c2ccc(C4CC4)s2)n2c-3cc3cc(-c4c[nH]c([C@@H]5C[C@H]6C[C@H]6N5C(=O)[C@@H](NC(=O)OC)C(C)C)n4)ccc32)c[nH]1)C(C)C (single isomer, unassigned) [Compound 721]	11.35	11.82	10.30	–	–	pIC50 [4, 8]: 9.77; pIC50 [5, 9]: 11.82
COC(=O)N[C@H](C(=O)N1CCC[C@H]1c1ncc(-c2cc(C)c3c(c2)OC(c2ccc(C4CC4)s2)n2c-3cc3cc(-c4cnc([C@@H]5CCCN5C(=O)[C@@H](NC(=O)OC)C(C)C)[nH]4)ccc32)[nH]1)C(C)C (single isomer, unassigned) [Compound 751]	9.29	11.48	10.57	10.54	–	pIC50 [4, 8]: 9.00
COC(=O)N[C@H](C(=O)N1CCC[C@H]1c1ncc(-c2cc(C)c3c(c2)OC(c2ccc(C4CC4)s2)n2c-3cc3cc(-c4cnc([C@@H]5CCCN5C(=O)[C@@H](NC(=O)OC)C(C)C)[nH]4)ccc32)[nH]1)C(C)C (single isomer, unassigned) [Compound 753]	10.22	11.24	10.64	11.70	9.19	–
COC(=O)N[C@H](C(=O)N1CCC[C@H]1c1ncc(-c2cc(C)c3c(c2)OC(c2ccc(C4CC4)s2)n2c-3cc3cc(-c4cnc([C@@H]5C[C@H]6C[C@H]6N5C(=O)[C@@H](NC(=O)OC)C(C)C)[nH]4)ccc32)[nH]1)C(C)C (single isomer, unassigned) [Compound 754]	10.38	–	10.41	–	9.36	pIC50 [2, 11]: 11.62; pIC50 [5, 9]: 11.59
COC(=O)N[C@H](C(=O)N1CCC[C@H]1c1ncc(-c2cc(C)c3c(c2)OC(c2ccc(C4CC4)s2)n2c-3cc3cc(-c4cnc([C@@H]5C[C@H]6C[C@H]6N5C(=O)[C@@H](NC(=O)OC)C(C)C)[nH]4)ccc32)[nH]1)C(C)C (single isomer, unassigned) [Compound 755]	10.66	11.55	10.64	11.72	9.47	–
COC(=O)N[C@H](C(=O)N1CCC[C@H]1c1ncc(-c2cc(C)c3c(c2)OC(c2ccc(C4CC4)s2)n2c-3cc3cc(-c4cnc([C@@H]5C[C@H]6C[C@H]6N5C(=O)[C@@H](NC(=O)OC)C(C)C)[nH]4)ccc32)[nH]1)C(C)C (single isomer, unassigned) [Compound 756]	9.19	11.44	9.22	11.66	7.99	–
COC(=O)N[C@H](C(=O)N1CCC[C@H]1c1ncc(-c2cc(C)c3c(c2)OC(c2ccc(C4CC4)s2)n2c-3cc3cc(-c4cnc([C@@H]5C[C@H]6C[C@H]6N5C(=O)[C@@H](NC(=O)OC)C5CCOCC5)[nH]4)ccc32)[nH]1)C(C)C (single isomer, unassigned) [Compound 762]	11.30	–	11.32	–	10.60	pIC50 [2, 11]: 11.70; pIC50 [5, 9]: 11.52
COC(=O)N[C@H](C(=O)N1CCC[C@H]1c1ncc(-c2cc(C)c3c(c2)OC(c2ccc(C4CC4)s2)n2c-3cc3cc(-c4cnc([C@@H]5C[C@H]6C[C@H]6N5C(=O)[C@@H](NC(=O)OC)C5CCOCC5)[nH]4)ccc32)[nH]1)C(C)C (single isomer, unassigned) [Compound 763]	9.92	11.57	10.21	11.60	8.67	–
COC(=O)N[C@H](C(=O)N1CCC[C@H]1c1ncc(-c2cc(C)c3c(c2)OC(c2ccc(C4CC4)s2)n2c-3cc3cc(-c4cnc([C@@H]5C[C@H]6C[C@H]6N5C(=O)[C@@H](NC(=O)OC)C5CCOCC5)[nH]4)ccc32)[nH]1)C(C)C (single isomer, unassigned) [Compound 764]	11.36	11.44	11.28	11.66	10.62	–
COC(=O)N[C@H](C(=O)N1CCC[C@H]1c1ncc(-c2ccc3c(c2)OC(c2cc4ccccc4s2)n2c-3cc3cc(-c4cnc([C@@H]5C[C@@H](F)CN5C(=O)[C@@H](NC(=O)OC)C5CCOCC5)[nH]4)ccc32)[nH]1)C1CCOCC1 (single isomer, unassigned) [Compound 813]	10.42	10.37	10.74	–	–	pIC50 [4, 8]: 8.85; pIC50 [5, 9]: 10.06
COC(=O)N[C@H](C(=O)N1CCC[C@H]1c1ncc(-c2cc(F)c3c(c2)OC(c2ccc(C4(C)CC4)s2)n2c-3cc3cc(-c4cnc([C@@H]5CCCN5C(=O)[C@@H](NC(=O)OC)C(C)C)[nH]4)ccc32)[nH]1)C(C)C (single isomer, unassigned) [Compound 836]	–	11.68	–	11.74	–	pIC50 [1, 12]: 10.80; pIC50 [3, 13]: 10.22; pIC50 [4, 14]: 9.53
COC(=O)N[C@H](C(=O)N1CCC[C@H]1c1ncc(-c2cc(F)c3c(c2)OC(c2ccc(CC(C)(C)OC)s2)n2c-3cc3cc(-c4cnc([C@@H]5CCCN5C(=O)[C@@H](NC(=O)OC)C(C)C)[nH]4)ccc32)[nH]1)C(C)C (single isomer, unassigned) [Compound 844]	–	11.66	–	11.59	–	pIC50 [1, 12]: 10.64; pIC50 [3, 13]: 9.67; pIC50 [4, 14]: 9.62
COC(=O)NC(C(=O)N1CCC[C@H]1c1ncc(-c2ccc3c(c2)cc2n3C(c3cc4c(s3)CCC4)Oc3cc(-c4cnc([C@@H]5CCCN5C(=O)[C@@H](NC(=O)OC)C(C)C)[nH]4)cc(C)c3-2)[nH]1)C1CCOC(C)(C)C1 (single isomer, unassigned) [Compound 853]	10.07	< 11.44	10.96	11.38	–	pIC50 [4, 8]: 9.15
COC(=O)N[C@H](C(=O)N1CCC[C@H]1c1ncc(-c2ccc3c(c2)OC(c2ccc(C4CC4)s2)n2c-3cc3cc(-c4cnc([C@@H]5CCCN5C(=O)[C@@H](NC(=O)OC)C(C)C)[nH]4)ccc32)[nH]1)C(C)C (stereo partly drawn) [Compound 2]	–	–	–	–	–	IC50 [1, 15]: 0.032 nM; pIC50 ([2]; Hepatitis C virus, replicon 1A): 11.54; IC50 [3, 16]: 0.033 nM; IC50 ([4]; Hepatitis C virus): 0.1 nM; pIC50 ([5]; Hepatitis C virus, replicon 1B): 11.62
CCc1ccc(C2Oc3cc(-c4cnc([C@@H]5CCCN5C(=O)[C@@H](NC(=O)OC)C(C)C)[nH]4)cc(F)c3-c3cc4cc(-c5cnc([C@@H]6CCCN6C(=O)[C@@H](NC(=O)OC)C(C)C)[nH]5)ccc4n32)s1 (stereo partly drawn) [Compound 4]	–	–	–	–	–	IC50 [1, 15]: 0.01 nM; pIC50 ([2]; Hepatitis C virus, replicon 1A): 11.66; IC50 [3, 16]: 0.055 nM; IC50 ([4]; Hepatitis C virus): 0.347 nM; pIC50 ([5]; Hepatitis C virus, replicon 1B): 11.70
COC(=O)N[C@H](C(=O)N1CCC[C@H]1c1nc(-c2cc(F)c3c(c2)OC(c2ccc(C)s2)n2c-3cc3cc(-c4cnc([C@@H]5CCCN5C(=O)[C@@H](NC(=O)OC)C5CCOCC5)[nH]4)ccc32)c[nH]1)C(C)C (stereo partly drawn) [Compound 58]	–	–	–	–	–	IC50 [1, 15]: 0.002 nM; pIC50 ([2]; Hepatitis C virus, replicon 1A): 11.85; IC50 [3, 16]: 0.011 nM; pIC50 [4, 17]: 10.39; pIC50 ([5]; Hepatitis C virus, replicon 1B): 11.47
COC(=O)N[C@H](C(=O)N1CCC[C@H]1c1nc(-c2cc(F)c3c(c2)OC(c2ccc(C)s2)n2c-3cc3cc(-c4cnc([C@@H]5CCCN5C(=O)[C@@H](NC(=O)OC)C5CCOCC5)[nH]4)ccc32)c[nH]1)C(C)C (stereo partly drawn) [Compound 59]	–	–	–	–	–	pIC50 ([1]; read-out: 1A Y93H IC50; replicon 1AY93H; Replicon Assay A): 11.40; pIC50 ([2]; replicon 1A): 11.89; pIC50 ([3]; read-out: 2B IC50; replicon 2B; Replicon Assay A): 11.15; pIC50 [4, 17]: 10.74; pIC50 ([5]; replicon 1B): 11.46
